Patent US20180312473A1, “PHENAZINE DERIVATIVES AS ANTIMICROBIAL AGENTS” (priority 2015, published 2018)
In brackets after ≈: the same amount, converted by molar mass. Where two headings read alike, the source gives them in different places.

Legend:
[1] = test system: human red blood cells; test: Hemolysis assay with red blood cells; settings: 200 μM
Description: The hemolysis activities of select compounds of the invention were determined. […] The washing was repeated three times with the buffer. In 96-well plate, test compounds were added to the buffer from DMSO stocks. […] The plate was then incubated for 1 hour at 37° C. After incubation, the plate was centrifuged for 5 minutes at 3,500 rpm. Then 80 μL of the supernatant was transferred to another 96-well plate, and the optical density (OD) was read at 405 nm. DMSO served as the negative control (0% hemolysis), while Triton X served as the positive control (100% hemolysis). The percent of hemolysis was calculated as (OD405 of the compound−OD405 of DMSO)/(OD405 of Triton X−OD405 of the buffer).
The washing was repeated three times with the buffer. In 96-well plate, test compounds were added to the buffer from DMSO stocks. […] The plate was then incubated for 1 hour at 37° C. After incubation, the plate was centrifuged for 5 minutes at 3,500 rpm. Then 80 μL of the supernatant was transferred to another 96-well plate and the optical density (OD) was read at 405 nm. DMSO served as our negative control (0% hemolysis) while Triton X served as our positive control (100% hemolysis). The percent of hemolysis was calculated as (OD405 of the test compound−OD405 DMSO)/(OD405 Triton X−OD405 buffer) from three independent experiments.

[2] = test system: MRSE (S. epidermidis ATCC 35984) planktonic cells and biofilms; test: Calgary Biofilm Device (CBD) assay, MBC/MBEC; assay type: cell-based, Staphylococcus epidermidis; settings: Table 8; for MBC: Staphylococcus epidermidis, read-out: MRSE 35984 MBC
[3] = test system: MRSA-2 planktonic cells and biofilms; test: Calgary Biofilm Device (CBD) assay, MBC/MBEC; assay type: cell-based, Staphylococcus aureus; settings: Staphylococcus aureus, MRSA
[4] = test system: MRSA-2; test: MIC assay with Tiron or metal(II) cation co-treatment; assay type: cell-based, Staphylococcus aureus
[5] = test system: S. epidermidis 12228; test: as above; assay type: cell-based, Staphylococcus epidermidis
[6] = test system: E. faecium 700221 (VRE); test: as above; assay type: cell-based, Enterococcus faecium
[7] = test system: Enterococcus faecium (ATCC 700221), VRE; test: MIC assay (broth microdilution, CLSI); assay type: cell-based; settings: Table 7; b lowest concentration tested; read-out: MIC, VRE 700221
[8] = test system: Staphylococcus epidermidis (ATCC 12228); test: MIC assay (broth microdilution, CLSI); assay type: cell-based; settings: Staphylococcus epidermidis, ATCC12228; Table 7; b lowest concentration tested; read-out: MIC, S. epidermidis 12228
[9] = test system: MRSA-2 (methicillin-resistant Staphylococcus aureus clinical isolate); test: MIC assay (broth microdilution, CLSI); assay type: cell-based; settings: Staphylococcus aureus, MRSA, Table 7; a midpoint of 2-fold range; b lowest concentration tested; read-out: MIC, MRSA-2
[10] = test system: VRE (E. faecium ATCC 700221) planktonic cells and biofilms; test: Calgary Biofilm Device (CBD) assay, MBC/MBEC; assay type: cell-based, Enterococcus faecium; settings: Enterococcus; Table 8; c lowest concentration tested; read-out: VRE 700221 MBC
[11] = test system: M. tuberculosis H37Ra (ATCC 25177); test: Mycobacterium tuberculosis MIC assay; assay type: cell-based; settings: Mycobacterium tuberculosis
Description: (§1) The culture was then diluted with fresh medium until an OD600 of 0.01 was reached. […] The final DMSO concentration was maintained at 0.5%. […] Three rows were reserved for each compound. […] OD600 absorbance was recorded using SPECTRAMAX M5 (Molecular Devices). Data obtained from three independent experiments were analyzed using Excel.
as §1, with “EXCEL.” for “Excel.”

[12] = Table 8, a/b 2-/4-fold range in independent experiments, read-out: MRSA-2 MBC
[13] = MRSA-2, + loss, − increase of activity
[14] = S. epidermidis 12228, + loss, − increase of activity
[15] = E. faecium 700221, + loss, − increase of activity

Structure (SMILES): N#CC(C#N)=NNc1cccc(Cl)c1 [CCCP, carbonyl cyanide m-chlorophenyl hydrazone, reference compound]
- % Hemolysis at 200 μM ([1]; red blood cells): 3.5%
- % Hemolysis at 200 μM ([1]; Table 8, human red blood cells): 3.5%
- MBC [2]: 31.3 µM (≈ 6.4 µg/mL)
- MBC ([3]; Table 5, a/b midpoint of 2-/4-fold range, read-out: MRSA-2 MBC): 31.3 µM (≈ 6.4 µg/mL)
- MBC [3, 12]: 31.3 µM (≈ 6.4 µg/mL)

Structure (SMILES): O=C(O)c1cn(C2CC2)c2cc(N3CCNCC3)c(F)cc2c1=O [Ciprofloxacin, ciprofloxacin, reference compound]
- % Hemolysis (200 μM) ([1]; 1 h, 37 °C): 1.8%

Structure (SMILES): Oc1cccc2cccnc12 [Compound 8-HQ, 8-hydroxyquinoline, reference compound]
- effect of tiron co-treatment on antibacterial activity ([4]; MRSA-2): complete loss of antibacterial activity
- MIC ([4]; MRSA-2, 1 mM Tiron, read-out: MIC with Tiron): >100 µM
- MIC ([4]; MRSA-2, no additive (Table 9), read-out: MIC): 6.25 µM
- Fold Δ (Cu^2+) [4, 13]: n.a. (insignificant changes in MIC values (<2-fold changes))
- Fold Δ (Fe^2+) [4, 13]: n.a. (insignificant changes in MIC values (<2-fold changes))
- Fold Δ (Tiron) [4, 13]: +16
- Fold Δ (MIC with Tiron vs MIC) ([4]; MRSA-2, + loss, − increase of antibacterial activity): +16
- MIC ([4]; Staphylococcus aureus, MRSA): 6.25 µM
- MIC ([4]; Staphylococcus aureus, MRSA, read-out: MIC with Cu^2+): 3.13 µM
- MIC ([4]; Staphylococcus aureus, MRSA, read-out: MIC with Fe^2+): 6.25 µM
- MIC ([4]; Staphylococcus aureus, MRSA, read-out: MIC with Tiron): > 100 µM
- MIC ([5]; S. epidermidis 12228, 1 mM Tiron, read-out: MIC with Tiron): >100 µM
- MIC ([5]; S. epidermidis 12228, no additive, read-out: MIC): 3.13 µM
- Fold Δ (Cu^2+) [5, 14]: n.a. (insignificant changes in MIC values (≤2-fold changes))
- Fold Δ (MIC with Tiron vs MIC) [5, 14]: >+32
- Fold Δ (Tiron) [5, 14]: >+32
- MIC ([5]; Staphylococcus epidermidis, 12228): 3.13 µM
- MIC ([5]; Staphylococcus epidermidis, 12228, read-out: MIC with Cu^2+): 3.13 µM
- MIC ([5]; Staphylococcus epidermidis, 12228, read-out: MIC with Tiron): > 100 µM
- MIC [6]: 18.8 µM
- Fold Δ (Cu^2+) [6, 15]: n.a. (insignificant changes in MIC values (≤2-fold changes))
- Fold Δ (Tiron) [6, 15]: >+12
- MIC ([6]; Enterococcus faecium, VRE): 18.8 µM
- MIC ([6]; Enterococcus faecium, VRE, read-out: MIC with Cu^2+): 18.8 µM
- MIC ([6]; Enterococcus faecium, VRE, read-out: MIC with Tiron): > 100 µM
- Fold Δ (MIC with Tiron vs MIC) ([6]; VRE 700221, + loss, − increase of activity): >+12
- MIC ([6]; read-out: MIC with Tiron): > 100 µM

Structure (SMILES): C=CCc1cc(Br)c2nc3ccccc3nc2c1O [Compound 23, 2-Allyl-4-bromo-1-hydroxyphenazine]
- MIC [7]: > 100 µM
- MIC [8]: > 100 µM
- MIC [9]: > 100 µM

Structure (SMILES): O=C(O)CN(CCN(CC(=O)O)CC(=O)O)CC(=O)O [EDTA, ethylenediaminetetraacetic acid, reference compound]
- % Hemolysis at 200 μM ([1]; human, 1 h, pH 7.2): 3.0%
- MBC [2]: 1000 µM (≈ 292 µg/mL)
- MRSE 35984 MBEC [2]: > 2000 µM

Structure (SMILES): CC(=O)N[C@@H](CS)C(=O)O [NAC, N-acetyl cysteine, reference compound]
- MBC [10]: > 2000 µM
- MBC [2]: > 2000 µM
- MBC ([3]; Table 4, read-out: MBC, MRSA-2): > 2000 µM
- MBC [3, 12]: > 2000 µM

Structure (SMILES): CO[C@H]1/C=C/O[C@@]2(C)Oc3c(C)c(O)c4c(O)c(c(/C=N/N5CCN(C)CC5)c(O)c4c3C2=O)NC(=O)/C(C)=C\C=C\[C@H](C)[C@H](O)[C@@H](C)[C@@H](O)[C@@H](C)[C@H](OC(C)=O)[C@@H]1C [Rifampin, rifampin, reference compound]
- % Hemolysis (200 μM) ([1]; human, 1 h, pH 7.2): 8.0%
- MIC [8]: 0.1 µM (≈ 0.0823 µg/mL)

Structure (SMILES): [H]/N=C(/N)N[C@H]1[C@H](O)[C@@H](O)[C@H](O[C@@H]2O[C@@H](C)[C@](O)(C=O)[C@H]2O[C@@H]2O[C@@H](CO)[C@H](O)[C@@H](O)[C@@H]2NC)[C@@H](N/C(N)=N\[H])[C@@H]1O [Streptomycin, streptomycin, reference compound]
- MIC ([11]; 168 h, read-out: Mtb MIC): 1.32 µM (≈ 0.768 µg/mL)
- MIC ([11]; Table 7, read-out: MIC, M. tuberculosis H37Ra): 1.32 µM (≈ 0.768 µg/mL)

Structure (SMILES): CN(C)[C@@H]1C(O)=C(C(N)=O)C(=O)[C@@]2(O)C(O)=C3C(=O)c4c(O)cccc4[C@@](C)(O)[C@H]3C[C@@H]12 [Tetracyc., tetracycline, reference compound]
- Fold Δ (Cu^2+) [4, 13]: n.a. (insignificant changes in MIC values (<2-fold changes))
- Fold Δ (Fe^2+) [4, 13]: +16
- MIC ([4]; Staphylococcus aureus, MRSA-2, 200 μM copper(II), read-out: MIC with Cu^2+): 1.56 µM
- MIC ([4]; Staphylococcus aureus, MRSA-2, 200 μM iron(II), read-out: MIC with Fe^2+): 18.8 µM
- MIC ([4]; Staphylococcus aureus, MRSA-2, no additive (Table 9), read-out: MIC): 1.17 µM
